According to ChEMBL document CHEMBL1201862, “PubChem BioAssay data set” (2004):
The source made the active and inactive calls.

Experiments:
[1] = molecular target: Delta-type opioid receptor (Homo sapiens, UniProt P41143); test: Counterscreen for agonists of heterodimerization of the mu 1 (OPRM1) and delta 1 (OPRD1) opioid receptors: Luminescence-based cell-based high throughput dose response assay to identify agonists of OPRD1 homodimerization. [Related pubchem assays (depositor defined):AID504326, AID504355, AID504692, AID504904, AID504905]; assay type: functional
[2] = system: HEK293; test: cells; assay type: functional, cell-based; conditions: Homo sapiens
[3] = molecular target: T1, Streptokinase A (Streptococcus pyogenes serotype M1, UniProt P10520); test: viability-normalized secreted streptokinase activity reduction – plasminogen activation absorbance, OD405, dose response (AID 1914); assay type: functional, Streptococcus pyogenes M1 GAS;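 further: secreted streptokinase activity via plasminogen activation per viability signal from cell pellet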
T1 sequence (P10520 whole entry): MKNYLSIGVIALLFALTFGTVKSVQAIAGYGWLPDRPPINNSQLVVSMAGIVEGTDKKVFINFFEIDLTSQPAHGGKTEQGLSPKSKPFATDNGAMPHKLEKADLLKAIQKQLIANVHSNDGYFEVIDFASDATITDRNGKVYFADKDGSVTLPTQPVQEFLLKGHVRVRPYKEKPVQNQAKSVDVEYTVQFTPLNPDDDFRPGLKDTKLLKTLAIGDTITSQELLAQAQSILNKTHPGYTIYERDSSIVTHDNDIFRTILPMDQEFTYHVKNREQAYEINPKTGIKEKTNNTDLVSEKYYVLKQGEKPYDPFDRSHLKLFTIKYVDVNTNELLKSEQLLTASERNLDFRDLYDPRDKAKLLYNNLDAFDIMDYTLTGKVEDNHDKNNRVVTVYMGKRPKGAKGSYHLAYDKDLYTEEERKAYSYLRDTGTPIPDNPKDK

[4] = system: H4; test: Inhibitors of Prion Protein 5' UTR mRNA Measured in Cell-Based System Using Plate Reader - 2078-01_Inhibitor_Dose_DryPowder_Activity. [Related pubchem assays (depositor defined):AID488894]; assay type: functional; conditions: Homo sapiens
[5] = system: HEK293; test: inhibition of NOD1-driven NF-kB reporter – cell-based, luminescence, uHTS, primary screen (AID 1578); assay type: functional; conditions: Homo sapiens
[6] = molecular target: SUMO-activating enzyme (Homo sapiens, UniProt Q9UBT2); test: blockers of UBC9-mediated SUMO conjugation – biochemical, AlphaScreen, SUMOylation inhibitor project, confirmation (AID 2018); assay type: functional
[7] = bead-based luminescence quenchers, dual-tagged ARNT – biochemical, AlphaScreen, cherry-pick, artefact control for ARNT-TACC3 interaction inhibitor project, dose response (AID 651705); assay type: functional;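 further: AlphaScreen bead proximity signal that flags compounds interfering with the detection technology; potency reflects signal decrease which marks the compound as an assay artifact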
[8] = molecular target: T2, Serine/threonine-protein phosphatase (Homo sapiens, UniProt Q9BPW0); test: inhibition of protein phosphatase 5 activity – biochemical, fluorescence, dose response (AID 2395)
T2 sequence (Q9BPW0 whole entry): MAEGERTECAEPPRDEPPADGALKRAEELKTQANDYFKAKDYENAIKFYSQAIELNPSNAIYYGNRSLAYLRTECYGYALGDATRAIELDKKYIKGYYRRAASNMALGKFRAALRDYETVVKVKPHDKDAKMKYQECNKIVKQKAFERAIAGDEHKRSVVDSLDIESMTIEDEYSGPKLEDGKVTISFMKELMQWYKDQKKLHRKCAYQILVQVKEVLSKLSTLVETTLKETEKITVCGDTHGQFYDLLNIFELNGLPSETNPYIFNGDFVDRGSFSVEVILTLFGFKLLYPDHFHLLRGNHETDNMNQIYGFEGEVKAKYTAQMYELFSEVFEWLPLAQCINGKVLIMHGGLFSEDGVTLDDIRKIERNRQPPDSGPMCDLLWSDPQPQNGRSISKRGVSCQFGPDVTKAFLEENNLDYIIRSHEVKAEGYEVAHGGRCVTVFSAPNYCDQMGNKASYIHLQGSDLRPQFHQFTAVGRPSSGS

SUMO-activating enzyme, sequence (Q9UBE0 whole entry): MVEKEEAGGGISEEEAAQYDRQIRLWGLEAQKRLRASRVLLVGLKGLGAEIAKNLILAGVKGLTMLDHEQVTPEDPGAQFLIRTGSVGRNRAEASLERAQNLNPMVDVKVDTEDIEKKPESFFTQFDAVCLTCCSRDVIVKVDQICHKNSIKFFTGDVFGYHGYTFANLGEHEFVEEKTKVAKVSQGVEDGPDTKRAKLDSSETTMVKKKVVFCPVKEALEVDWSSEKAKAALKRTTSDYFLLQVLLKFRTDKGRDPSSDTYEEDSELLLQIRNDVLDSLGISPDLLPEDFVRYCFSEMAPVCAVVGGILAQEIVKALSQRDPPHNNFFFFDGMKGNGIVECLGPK
SUMO-activating enzyme, sequence (Q9UBT2 whole entry): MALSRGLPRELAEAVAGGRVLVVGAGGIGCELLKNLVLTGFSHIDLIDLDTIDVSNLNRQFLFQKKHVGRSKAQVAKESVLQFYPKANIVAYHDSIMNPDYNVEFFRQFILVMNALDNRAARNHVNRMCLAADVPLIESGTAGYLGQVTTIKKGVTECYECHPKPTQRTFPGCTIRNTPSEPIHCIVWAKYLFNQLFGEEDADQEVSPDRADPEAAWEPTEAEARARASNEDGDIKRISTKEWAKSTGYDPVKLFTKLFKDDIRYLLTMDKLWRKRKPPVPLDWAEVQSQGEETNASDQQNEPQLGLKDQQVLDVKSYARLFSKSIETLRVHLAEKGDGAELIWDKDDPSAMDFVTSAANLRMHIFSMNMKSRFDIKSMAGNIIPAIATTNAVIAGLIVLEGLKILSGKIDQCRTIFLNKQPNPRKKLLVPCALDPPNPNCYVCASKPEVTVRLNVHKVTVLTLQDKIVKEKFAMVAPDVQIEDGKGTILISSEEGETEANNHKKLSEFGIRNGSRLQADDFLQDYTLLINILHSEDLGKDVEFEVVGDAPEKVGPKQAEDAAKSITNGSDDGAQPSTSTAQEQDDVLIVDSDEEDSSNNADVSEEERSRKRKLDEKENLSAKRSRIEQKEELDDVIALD
Delta-type opioid receptor, sequence (P41143 whole entry): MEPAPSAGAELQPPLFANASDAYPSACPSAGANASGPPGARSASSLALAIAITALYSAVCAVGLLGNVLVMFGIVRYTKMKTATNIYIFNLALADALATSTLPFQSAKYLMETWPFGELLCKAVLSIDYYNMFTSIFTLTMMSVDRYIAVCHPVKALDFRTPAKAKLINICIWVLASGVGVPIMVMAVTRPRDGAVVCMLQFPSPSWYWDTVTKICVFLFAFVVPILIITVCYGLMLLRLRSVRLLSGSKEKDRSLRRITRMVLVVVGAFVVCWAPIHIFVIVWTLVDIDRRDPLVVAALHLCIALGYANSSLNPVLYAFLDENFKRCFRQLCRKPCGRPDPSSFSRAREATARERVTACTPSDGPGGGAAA

In the case of `Cc1cc(/C=C2\SC(=S)N(C)C2=O)c(C)n1-c1ccc(O)cc1`, the EC50 [1] is reported as 15.1 µM (inactive), the IC50 [2] is reported as 11.2 µM (active) and the EC50 [3] is reported as > 150 µM (not active). The AC50 [4] was 0.181 µM (active) and the EC50 [5] was 9.47 µM (active).
In the case of `COC(=O)c1cccc(-c2ccc(C(c3c(C)n[nH]c3O)c3c(C)n[nH]c3O)o2)c1`, the IC50 [6] is reported as 9.36 µM (active) and the AC50 [7] is reported as 107 µM (active).
With `Cc1ccc(C(=O)NNc2cc(N3CCCC3)nc(N3CCCC3)n2)cc1` the IC50 [8] was 4.1 µM (active).
